Here are results for 7 compounds from ChEMBL document CHEMBL1127356, “(Fluorocyclopropyl)quinolones. 2. Synthesis and Stereochemical structure-activity relationships of chiral 7-(7-amino-5-azaspiro[2.4]heptan-5-yl)-1-(2-fluorocyclopropyl)quinolone antibacterial agents” (J Med Chem, 1994).

In brackets after ≈: the same amount, converted by molar mass.

For one series, the system named is Enterobacter cloacae. Kind of series: Minimum inhibitory concentration in vitro against Enterobacter cloacae (03400). In kind it is functional.
The next series deals with Escherichia coli. Briefly: Minimum inhibitory concentration in vitro against Escherichia coli (NIHJ). It is filed as functional.
A further series concerns Klebsiella pneumoniae. Briefly: Minimum inhibitory concentration in vitro against Klebsiella pneumoniae (type-2). It is filed as functional.
The next series has as its system Pseudomonas aeruginosa. Briefly: Minimum inhibitory concentration in vitro against Pseudomonas aeruginosa (32104). It is filed as functional.
In a further series the test system is Proteus vulgaris. Kind of series: Minimum inhibitory concentration in vitro against Proteus vulgaris (08601). In kind it is functional.
The test system of series [1] is Staphylococcus aureus. Kind of series: Minimum inhibitory concentration in vitro against […] (209P). It is filed as functional.
The subject of another series is Streptococcus pyogenes. Briefly: Minimum inhibitory concentration in vitro against Streptococcus pyogenes (G36). It is filed as functional.
Series [2] has as its system Staphylococcus epidermidis. Kind of series: Minimum inhibitory concentration in vitro against […] (56556). It is filed as functional.
The test system of the next series is Serratia marcescens. Briefly: Minimum inhibitory concentration in vitro against […]. It is filed as functional.
The next series deals with Enterococcus faecalis. Kind of series: Minimum inhibitory concentration in vitro against Streptococcus faecalis (ATCC 19433). In kind it is functional.
Series [3] in a line: Maximum concentration in plasma was determined by oral administration to rats at 20 mg/kg. In kind it is ADME, organism-based. Details: dose 20 mg/kg, route oral. The settings on record: rat.
The next series relates to Rattus norvegicus. Kind of series: Urinary recovery by oral administration to rats in conjugate form of compound at 20 mg/kg. It is filed as ADME, organism-based, Urine. More on the design: dose 20 mg/kg, route oral. The settings on record: in vivo.
Series [4] is described as follows: Urinary recovery by oral administration to rats in unchanged form of compound at 20 mg/kg. In kind it is ADME, organism-based. Details: dose 20 mg/kg, route oral. Conditions: rat, urine, read-out: Urinary recovery.
For series [5], the system named is Staphylococcus aureus. Kind of series: microbe, parasite or virus in culture.
Description: Minimum inhibitory concentration against Streptococcus aureus (209P)
The mark [6] stands for this setting: Enterobacter cloacae, read-out: MIC.
[7] abbreviates: Escherichia coli, read-out: MIC.
Setting [8] is: Klebsiella pneumoniae, read-out: MIC.
The mark [9] stands for this setting: Pseudomonas aeruginosa, read-out: MIC.
[10] abbreviates: Proteus vulgaris, read-out: MIC.
Setting [11] is: Staphylococcus aureus, read-out: MIC.
Setting [12] is: Streptococcus pyogenes, read-out: MIC.
[13] abbreviates: Staphylococcus epidermidis, read-out: MIC.
The mark [14] stands for this setting: Serratia marcescens, read-out: MIC.
Setting [15] is: Enterococcus faecalis, ATCC 19433, read-out: MIC.

Regarding `N[C@@H]1CN(c2c(F)cc3c(=O)c(C(=O)O)cn(C4C[C@H]4F)c3c2Cl)CC12CC2` (single isomer, unassigned), the MIC with Enterobacter cloacae (setting [6]) was determined as 0.013 µg/mL (≈ 0.0317 µM); in the series with Escherichia coli (setting [7]) it was 0.013 µg/mL (≈ 0.0317 µM); in the series on Klebsiella pneumoniae (setting [8]), 0.025 µg/mL (≈ 0.061 µM); in the series on Pseudomonas aeruginosa (setting [9]), 0.2 µg/mL (≈ 0.488 µM); in the series on Proteus vulgaris (setting [10]), 0.013 µg/mL (≈ 0.0317 µM); in the series with Staphylococcus aureus [1] (setting [11]), 0.025 µg/mL (≈ 0.061 µM). The MIC in the series with Streptococcus pyogenes (setting [12]) is 0.2 µg/mL (≈ 0.488 µM); in [2] (setting [13]), 0.05 µg/mL (≈ 0.122 µM); in the series on Serratia marcescens (setting [14]) it was 0.05 µg/mL (≈ 0.122 µM); in the series on Enterococcus faecalis (setting [15]), 0.2 µg/mL (≈ 0.488 µM).
By Cmax is commonly meant the peak of the concentration-time curve. Regarding `NC1CN(c2c(F)cc3c(=O)c(C(=O)O)cn([C@@H]4C[C@@H]4F)c3c2Cl)CC12CC2` (single isomer, unassigned) [SITAFLOXACIN ANHYDROUS], in [3], the highest level (Cmax) was 2600 ng/mL. This compound gave a Urinary recovery in the series on Rattus norvegicus of 1%. Also, the dose excreted in [4] was 22%. Also, the MIC in the series with Enterobacter cloacae (setting [6]) is 0.006 µg/mL (≈ 0.0146 µM); with Escherichia coli (setting [7]) it was below 0.006 µg/mL; in the series on Klebsiella pneumoniae (setting [8]) it was 0.025 µg/mL (≈ 0.061 µM); with Pseudomonas aeruginosa (setting [9]), 0.05 µg/mL (≈ 0.122 µM); with Proteus vulgaris (setting [10]), 0.006 µg/mL (≈ 0.0146 µM); in the series with Staphylococcus aureus [1] (setting [11]) it was 0.013 µg/mL (≈ 0.0317 µM). Also, the MIC with Streptococcus pyogenes (setting [12]) stood at 0.05 µg/mL (≈ 0.122 µM); in series [2] (setting [13]), 0.025 µg/mL (≈ 0.061 µM); in the series on Serratia marcescens (setting [14]) it was 0.025 µg/mL (≈ 0.061 µM); in the series with Enterococcus faecalis (setting [15]), 0.1 µg/mL (≈ 0.244 µM).
With `N[C@@H]1CN(c2c(F)cc3c(=O)c(C(=O)O)cn(C4CC4F)c3c2Cl)CC12CC2` (stereo in doubt; 37), the MIC was found to be 0.013 µg/mL (≈ 0.0317 µM) in the series on Enterobacter cloacae; 0.006 µg/mL (≈ 0.0146 µM) with Escherichia coli; 0.05 µg/mL (≈ 0.122 µM) against Klebsiella pneumoniae; 0.39 µg/mL (≈ 0.952 µM) against Pseudomonas aeruginosa; 0.025 µg/mL (≈ 0.061 µM) with Proteus vulgaris; 0.1 µg/mL (≈ 0.244 µM) in the series on Staphylococcus aureus [1]. Besides, the MIC was found to be 0.39 µg/mL (≈ 0.952 µM) against Streptococcus pyogenes, 0.1 µg/mL (≈ 0.244 µM) in [2], 0.1 µg/mL (≈ 0.244 µM) in the series with Serratia marcescens and 0.78 µg/mL (≈ 1.9 µM) in the series on Enterococcus faecalis.
Take `N[C@@H]1CN(c2c(F)cc3c(=O)c(C(=O)O)cn(C4CC4F)c3c2Cl)CC12CC2` (stereo in doubt; 38): the MIC in the series on Enterobacter cloacae is 0.2 µg/mL (≈ 0.488 µM); with Escherichia coli it was 0.05 µg/mL (≈ 0.122 µM); against Klebsiella pneumoniae it was 0.2 µg/mL (≈ 0.488 µM); against Pseudomonas aeruginosa it was 1.56 µg/mL (≈ 3.81 µM); with Proteus vulgaris it was 0.1 µg/mL (≈ 0.244 µM); against Staphylococcus aureus [1], 0.78 µg/mL (≈ 1.9 µM). Moreover, the MIC against Streptococcus pyogenes worked out at 3.13 µg/mL (≈ 7.64 µM); in [2], 0.78 µg/mL (≈ 1.9 µM); in the series with Serratia marcescens (setting [14]) it was 0.2 µg/mL (≈ 0.488 µM); against Enterococcus faecalis, 3.13 µg/mL (≈ 7.64 µM).
For the compound `N[C@H]1CN(c2c(F)cc3c(=O)c(C(=O)O)cn(C4CC4F)c3c2Cl)CC12CC2` (stereo in doubt; 39), the MIC in the series with Enterobacter cloacae was determined as 0.1 µg/mL (≈ 0.244 µM); against Escherichia coli, 0.05 µg/mL (≈ 0.122 µM); in the series with Klebsiella pneumoniae it was 0.39 µg/mL (≈ 0.952 µM); in the series with Pseudomonas aeruginosa, 1.56 µg/mL (≈ 3.81 µM); against Proteus vulgaris it was 0.1 µg/mL (≈ 0.244 µM); with Staphylococcus aureus [1], 0.78 µg/mL (≈ 1.9 µM). For the same compound, the MIC came to 0.78 µg/mL (≈ 1.9 µM) in series [2], 0.39 µg/mL (≈ 0.952 µM) in the series on Serratia marcescens and 6.25 µg/mL (≈ 15.3 µM) against Enterococcus faecalis.
With `N[C@H]1CN(c2c(F)cc3c(=O)c(C(=O)O)cn(C4CC4F)c3c2Cl)CC12CC2` (stereo in doubt; 40), the MIC was 0.78 µg/mL (≈ 1.9 µM) in the series with Enterobacter cloacae; 0.39 µg/mL (≈ 0.952 µM) against Escherichia coli; 1.56 µg/mL (≈ 3.81 µM) in the series with Klebsiella pneumoniae; 6.25 µg/mL (≈ 15.3 µM) in the series with Pseudomonas aeruginosa; 0.39 µg/mL (≈ 0.952 µM) in the series on Proteus vulgaris; 3.13 µg/mL (≈ 7.64 µM) in the series on Staphylococcus aureus [1]. Moreover, the MIC with Streptococcus pyogenes (setting [12]) was above 12.5 µg/mL; in [2], 3.13 µg/mL (≈ 7.64 µM); in the series with Serratia marcescens (setting [14]), 0.78 µg/mL (≈ 1.9 µM); in the series on Enterococcus faecalis (setting [15]) it was above 12.5 µg/mL.
`O=C(O)c1cn(C2CC2)c2cc(N3CCNCC3)c(F)cc2c1=O` [CIPROFLOXACIN]: the MIC with Klebsiella pneumoniae (setting [8]) was 0.05 µg/mL (≈ 0.151 µM); with Pseudomonas aeruginosa (setting [9]), 0.1 µg/mL (≈ 0.302 µM); with Proteus vulgaris (setting [10]), 0.013 µg/mL (≈ 0.0392 µM); in the series with Streptococcus pyogenes (setting [12]), 1.56 µg/mL (≈ 4.71 µM); in series [2] (setting [13]) it was 0.2 µg/mL (≈ 0.604 µM); in the series on Serratia marcescens (setting [14]), 0.05 µg/mL (≈ 0.151 µM). The MIC with Enterococcus faecalis (setting [15]) amounted to 1.56 µg/mL (≈ 4.71 µM); against Staphylococcus aureus [5], 0.1 µg/mL (≈ 0.302 µM).
